From patent publication US4463014A, “Cyclopropane carboxylates” (Uclaf; Roussel, priority 1981, dated 1984)

How the values were obtained:
Assay type in all cases: in vivo
houseflies [1] = test: Knockdown activity against houseflies; details: female houseflies 4 days old, sprayed in Kearns and March chamber, 0.25 g/liter, 5% acetone and 95% Isopar L
Procedure: Female houseflies 4 days old were sprayed in a Kearns and March chamber at 2 ml per second with a solution of 5% of acetone and 95% of Isopar L with 50 insects being used for each dose at a concentration of 0.25 g/liter and readings were taken every 30 seconds for 10 minutes and after 15 minutes to determine the KT50 by the usual method.

[2] = test system: larvae of Acanthocelides obtectus; test: Lethal activity against Acanthocelides obtectus; details: Test D repeated
[3] = test system: larvae of Spodoptera littoralis; test: Lethal effect against Spodoptera larvae (topical application); details: Spodoptera littoralis larvae 4th stage, topical 1 μl acetone solution, dead counted 48 hours later
Procedure: 1 μl of acetone solution of the test compound was applied with an Arnold micromanipulator to the dorsal thorax of 15 larvae of Spodoptera littoralis in the 4th stage of development which are about 10 days old at 24° C. and 65% relative humidity. After treatment, the larvae were placed on an artificial nutritive media and the number of dead was determined 48 hours later.

houseflies [4] = test: Lethal activity against houseflies (topical application); details: female houseflies 4 to 5 days old, topical 1 μl acetone solution on dorsal thorax, dead counted 24 hours later
Procedure: 50 female houseflies 4 to 5 days old per treatment received a topical application of 1 μl of an acetone solution of the test compound on the dorsal thorax with an Arnold micromanipulator and the number of dead flies was determined 24 hours later. The DL50 or dose in nanograms per fly necessary to kill 50% of the insects were determined and the results are reported in Table II.

beetles = test: Lethal activity against beetles (contact with film on glass); details: contact with film on glass from acetone solutions
Excerpt: The tests were effected by contact with a film on glass deposited by pipette of acetone solutions of different concentrations on the bottom of a glass Petrie dish with sides previously coated with talc to avoid loss of insects.

SMILES | KT50 (houseflies [1]) [min] | DL50 in ng per insect [2] [ng per insect] | DL50 ng per insect [3] [ng per insect] | DL50 namograms per insects (houseflies [4]) [namograms per insects] | CL50 in mg/m^2 (beetles) [mg/m^2]
CC1(C)[C@H](C(=O)O[C@H](C#N)c2ccc(F)c(Oc3ccccc3)c2)[C@H]1C(Br)C(Cl)(Cl)Br (mixture of isomers) [Example 2, (S) cyano-(4-fluoro-3-phenoxy-phenyl)-methyl (1R,trans) 2,2-dimethyl-3-[1 (R,S), 2-dibromo-2,2-dichloroethyl]-cyclopropane-1-carboxylate] | 2.8 | 10.9 | 6.2 | 1.14 | 0.084
CC1(C)C(C(=O)O[C@H](C#N)c2ccc(F)c(Oc3ccccc3)c2)C1(C)C [Example 1, (S) cyano-(4-fluoro-3-phenoxy-phenyl)-methyl 2,2,3,3-tetramethyl-cyclopropane-1-carboxylate] | 2.0 | 8.12 | 8.4 | 5.3 | 0.22
CC1(C)[C@H](C(=O)O[C@H](C#N)c2ccc(F)c(Oc3ccccc3)c2)[C@@H]1C(Br)C(Cl)(Cl)Br (stereo partly drawn) [Example 3, (S) cyano-(4-fluoro-3-phenoxy-phenyl)-methyl (1R,cis) 2,2-dimethyl-3-[1(R,S) 2-dibromo-2,2-dichlor-ethyl]-cyclopropane-1-carboxylate] | 2.9 | 7.7 | 1.4 | 1.02 | 0.021
CC1(C)[C@H](C(=O)O[C@H](C#N)c2ccc(F)c(Oc3ccccc3)c2)[C@H]1C(Br)C(Br)(Br)Br (stereo partly drawn) [Example 4, (S) cyano-(4-fluoro-3-phenoxy-phenyl)-methyl (1R,trans) 2,2-dimethyl-3-[1(R,S)2,2,2-tetrabromoethyl]-cyclopropane-1-carboxylate] | 2.0 | 6.7 | 6.5 | 1.04 | 0.074
CC1(C)[C@H](C(=O)O[C@H](C#N)c2ccc(F)c(Oc3ccccc3)c2)[C@@H]1C(Br)C(Br)(Br)Br (stereo partly drawn) [Example 5, (S) cyano-(4-fluoro-3-phenoxy-phenyl)-methyl (1R,cis) 2,2-dimethyl-3-[1,(R,S) 2,2,2-tetrabromoethyl]-cyclopropane-1-carboxylate] | 4.8 | 16.1 | 1.6 | 0.58 | 0.037
CC1(C)[C@H](C=C(F)F)[C@H]1C(=O)O[C@H](C#N)c1ccc(F)c(Oc2ccccc2)c1 [Example 6] | 1.6 | 7.1 | 3.4 | 8.9 | 0.126
CC1(C)[C@H](C(=O)O[C@H](C#N)c2ccc(F)c(Oc3ccccc3)c2)[C@@H]1C=C(F)F [Example 7, (S) cyano-(4-fluoro-3-phenoxy-phenyl)-methyl (1R,cis) 2,2-dimethyl-3-[2,2-difluoroethenyl]-cyclopropane-1-carboxylate] | 1.7 | 7.4 | 2.2 | 1.9 | 0.029
CC1(C)[C@H](C=C2CCCC2)[C@H]1C(=O)O[C@H](C#N)c1ccc(F)c(Oc2ccccc2)c1 [Example 8, (S) cyano-(4-fluoro-3-phenoxy-phenyl)-methyl (1R,trans) 2,2-dimethyl-3-cyclopentylidenemethyl-cyclopropane-1-carboxylate] | 6.1 | 20.1 | 14.9 | 0.98 | 0.054
CC1(C)[C@H](C(=O)O[C@H](C#N)c2ccc(F)c(Oc3ccccc3)c2)[C@@H]1C=C1CCCC1 [Example 9, (S) cyano-(4-fluoro-3-phenoxy-phenyl)-methyl (1R,cis) 2,2-dimethyl-3-cyclopentylidenemethyl-cyclopropane-1-carboxylate] | 4.4 | 8.6 | 5.1 | 0.87 | 0.083
CC1(C)[C@H](C=C2CCSC2=O)[C@H]1C(=O)O[C@H](C#N)c1ccc(F)c(Oc2ccccc2)c1 [Example 10, (S) cyano-(4-fluoro-3-phenoxy-phenyl)-methyl (1R,trans) 2,2-dimethyl-3-[(dihydro-2-oxo-3-(2H)-thienylidene)-methyl]-cyclopropane-1-carboxylate] | 3.5 |  |  |  | 
CC1(C)[C@H](C(=O)O[C@H](C#N)c2ccc(F)c(Oc3ccccc3)c2)[C@@H]1C=C1CCSC1=O [Example 11, (S) cyano-(4-fluoro-3-phenoxy-phenyl)-methyl (1R,cis) 2,2-dimethyl-3-[(dihydro-2-oxo-3-(2H)-thienylidene)-methyl]-cyclopropane-1-carboxylate] | 3.5 | 50.6 | 8.2 | 21.3 | 
CC(C)[C@H](C(=O)O[C@H](C#N)c1ccc(F)c(Oc2ccccc2)c1)c1ccc(OC(F)F)cc1 [Example 12, (S) cyano (4-fluoro-3-phenoxy-phenyl)-methyl 2 (S)-[p-difluoromethoxy-phenyl]-3-methyl-butyrate] | 3.6 | 22.2 | 44.3 | 4.9 | 0.23
CC1(C)[C@H](C=C2CCC2)[C@H]1C(=O)O[C@H](C#N)c1ccc(F)c(Oc2ccccc2)c1 [Example 13, (S) cyano-(4-fluoro-3-phenoxy-phenyl)-methyl (1R,trans) 2,2-dimethyl-3-cyclobutylidene-methyl-cyclopropane-1-carboxylate] | 2.74 | 17.9 | 5.8 | 0.97 | 0.029
CC1(C)[C@H](C(=O)O[C@H](C#N)c2ccc(F)c(Oc3ccccc3)c2)[C@@H]1C=C1CC1 [Example 14, (S) cyano-(4-fluoro-3-phenoxy-phenyl)-methyl (1R,cis) 2,2-dimethyl-3-cyclopropylidene-methyl-cyclopropane-1-carboxylate] | 3.13 | 22.7 | 4.25 | 1.44 | 0.049
CC1(C)[C@H](C=C2CC2)[C@H]1C(=O)O[C@H](C#N)c1ccc(F)c(Oc2ccccc2)c1 [Example 15, (S) cyano-(3-phenoxy-4-fluoro-phenyl)-methyl (1R,trans) 2,2-dimethyl-3-cyclopropylidene-methyl-cyclopropane-1-carboxylate] | 2.85 | 31.2 | 4.6 | 2.04 | 0.137
CC1(C)[C@H](C(=O)O[C@H](C#N)c2ccc(F)c(Oc3ccccc3)c2)[C@@H]1C=C1CCC1 [Example 16, (S) cyano-(4-fluoro-3-phenoxy-phenyl)-methyl (1R,cis) 2,2-dimethyl-3-cyclobutylidenemethyl-cyclopropane-1-carboxylate] | 2.89 | 12.3 | 4.5 | 0.639 | 0.018
